Reference: patent publication US12162865B2, “Methods of treating cancer” (Epizyme, Inc., priority 2012, dated 2024)
“Also recorded” adds a separate entry of the source. Read-outs that look alike come from different tables or passages of the source.

Columns and labels:
[1] = molecular target: SMYD2 (Homo sapiens, UniProt Q9NRG4); assay: Histone methyltransferase inhibition, SMYD2; type: biochemical
[2] = molecular target: WHSC1 (Homo sapiens, UniProt O96028); assay: Histone methyltransferase inhibition, WHSC1; type: biochemical
Sequence of WHSC1 (O96028 whole entry, species assumed): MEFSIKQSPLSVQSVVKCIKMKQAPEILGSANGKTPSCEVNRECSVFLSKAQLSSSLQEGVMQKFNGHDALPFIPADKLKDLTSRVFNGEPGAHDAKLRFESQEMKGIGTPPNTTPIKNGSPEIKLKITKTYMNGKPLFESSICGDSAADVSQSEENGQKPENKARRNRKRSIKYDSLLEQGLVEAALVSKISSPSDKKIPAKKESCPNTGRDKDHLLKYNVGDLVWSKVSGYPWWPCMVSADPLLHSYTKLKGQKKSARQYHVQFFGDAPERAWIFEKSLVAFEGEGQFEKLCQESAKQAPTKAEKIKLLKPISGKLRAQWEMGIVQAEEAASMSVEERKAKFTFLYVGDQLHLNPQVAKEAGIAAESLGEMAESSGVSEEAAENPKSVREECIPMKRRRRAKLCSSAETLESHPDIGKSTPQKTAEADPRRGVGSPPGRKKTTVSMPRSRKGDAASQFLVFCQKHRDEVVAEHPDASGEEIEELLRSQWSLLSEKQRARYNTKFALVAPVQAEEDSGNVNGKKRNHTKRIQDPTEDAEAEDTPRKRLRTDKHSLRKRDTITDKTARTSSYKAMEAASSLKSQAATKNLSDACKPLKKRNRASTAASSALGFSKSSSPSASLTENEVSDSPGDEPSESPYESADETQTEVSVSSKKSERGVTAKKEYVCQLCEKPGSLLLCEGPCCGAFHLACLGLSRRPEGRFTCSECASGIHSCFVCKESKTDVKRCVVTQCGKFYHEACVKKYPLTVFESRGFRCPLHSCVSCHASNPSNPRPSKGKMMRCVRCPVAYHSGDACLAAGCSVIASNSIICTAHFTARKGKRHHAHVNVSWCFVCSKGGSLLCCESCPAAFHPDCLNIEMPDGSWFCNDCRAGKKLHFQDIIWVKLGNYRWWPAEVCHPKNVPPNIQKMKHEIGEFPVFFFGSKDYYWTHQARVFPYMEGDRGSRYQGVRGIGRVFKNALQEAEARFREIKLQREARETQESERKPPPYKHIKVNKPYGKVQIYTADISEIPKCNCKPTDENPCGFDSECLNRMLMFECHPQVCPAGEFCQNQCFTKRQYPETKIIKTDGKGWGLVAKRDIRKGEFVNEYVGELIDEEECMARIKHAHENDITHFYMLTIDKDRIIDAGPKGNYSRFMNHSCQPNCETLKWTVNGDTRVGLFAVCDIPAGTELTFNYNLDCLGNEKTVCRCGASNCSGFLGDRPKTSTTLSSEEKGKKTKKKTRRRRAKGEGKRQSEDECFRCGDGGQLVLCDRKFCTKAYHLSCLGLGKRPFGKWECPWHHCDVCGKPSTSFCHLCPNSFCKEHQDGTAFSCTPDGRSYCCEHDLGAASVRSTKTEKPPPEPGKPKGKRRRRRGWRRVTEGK

[3] = system: G401 cells; details: pretreated 7 days, replated on day 0
Protocol: SJCRH30 cells were cultured in RPMI+10% FBS. A204, G401, and G402 cells were cultured in McCoys 5a+10% FBS. KYM-1 cells were cultured in DMEM/Ham's F12+10% FBS.
Plates were read on Day 0, Day 4, and Day 7 using CellTiter-Glo® (Promega), with compound/media being replenished on Day 4. On Day 7, the 6-well plates were trypsinized, centrifuged, and resuspended in fresh media for counting by Vi-Cell. Cells from each treatment were replated at the original density in 96-well plates in triplicate. Cells were allowed to adhere to the plate overnight, and cells were treated as on Day 0. […] Averages of triplicates were used to plot proliferation over the timecourse, and calculate IC50 values.

[4] = system: SMARCB1 regulated genes in RD control cells; assay: Gene expression analysis (qPCR), RD cells; type: cell-based; details: 1 μM
Protocol: (§1) Gene expression was normalized to 18S (AB #Hs99999901_s1) and fold change was calculated using the ΔΔCt method. For the in vivo samples, the average Ct value+/−SD was determined for each dose group and fold change compared to vehicle dose group was calculated using the ΔΔCt method.

[5] = molecular target: EHMT2 (Homo sapiens, UniProt Q96KQ7); assay: Histone methyltransferase inhibition, EHMT2; type: biochemical
Sequence of EHMT2 (Q96KQ7 whole entry, species assumed): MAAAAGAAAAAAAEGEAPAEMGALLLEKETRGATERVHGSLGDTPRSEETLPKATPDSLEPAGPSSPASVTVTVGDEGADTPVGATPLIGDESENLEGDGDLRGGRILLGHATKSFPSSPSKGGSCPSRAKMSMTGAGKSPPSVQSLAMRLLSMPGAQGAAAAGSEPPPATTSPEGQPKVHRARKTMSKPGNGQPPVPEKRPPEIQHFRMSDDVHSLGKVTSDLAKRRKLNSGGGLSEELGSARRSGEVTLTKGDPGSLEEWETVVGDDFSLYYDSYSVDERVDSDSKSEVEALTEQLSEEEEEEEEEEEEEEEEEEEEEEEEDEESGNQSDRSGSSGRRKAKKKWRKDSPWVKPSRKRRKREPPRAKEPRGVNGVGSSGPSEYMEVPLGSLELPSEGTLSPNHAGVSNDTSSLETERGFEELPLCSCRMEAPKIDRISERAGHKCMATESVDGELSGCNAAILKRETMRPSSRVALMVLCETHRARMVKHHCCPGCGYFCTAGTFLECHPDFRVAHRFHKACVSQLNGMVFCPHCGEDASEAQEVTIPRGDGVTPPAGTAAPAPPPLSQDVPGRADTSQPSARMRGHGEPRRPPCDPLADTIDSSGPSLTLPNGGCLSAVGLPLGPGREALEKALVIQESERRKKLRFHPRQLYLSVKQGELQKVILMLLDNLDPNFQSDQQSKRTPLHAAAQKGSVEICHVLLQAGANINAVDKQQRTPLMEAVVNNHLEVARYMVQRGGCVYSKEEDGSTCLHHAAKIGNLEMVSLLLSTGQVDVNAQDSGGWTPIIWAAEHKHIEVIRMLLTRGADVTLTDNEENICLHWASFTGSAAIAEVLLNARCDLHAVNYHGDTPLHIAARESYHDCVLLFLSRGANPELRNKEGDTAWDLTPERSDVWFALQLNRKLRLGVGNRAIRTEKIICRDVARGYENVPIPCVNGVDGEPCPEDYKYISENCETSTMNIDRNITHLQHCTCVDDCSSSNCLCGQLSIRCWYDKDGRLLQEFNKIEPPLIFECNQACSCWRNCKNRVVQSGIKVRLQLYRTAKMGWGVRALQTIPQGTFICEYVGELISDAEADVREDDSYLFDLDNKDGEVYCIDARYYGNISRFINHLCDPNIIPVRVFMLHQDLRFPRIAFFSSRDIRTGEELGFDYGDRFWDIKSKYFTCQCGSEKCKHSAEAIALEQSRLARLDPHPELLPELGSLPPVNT

[6] = molecular target: DOT1L (Homo sapiens, UniProt Q8TEK3); assay: Histone methyltransferase inhibition, DOT1L; type: biochemical
[7] = system: WSU-DLCL2 cells; details: with mouse plasma protein binding considered
[8] = Oral administration to rodents (bioavailability); type: in vivo; details: administered to rodents
[9] = system: KARPAS-422 xenografts; assay: KARPAS-422 xenograft in mice; type: in vivo, nude mice; details: for antitumor effect, intermittent dosing schedules: 7-day on/7-day off and 21 day on/7 day off
[10] = system: H3K27Me3 in RD cells; details: 4 days, acid-extracted histones, immunoblot
Protocol: (§2) A204, G401, and G402 cells were cultured in McCoys 5a+10% FBS.
(§3) Cells were pelleted, washed with ice cold PBS, resuspended in ice cold RIPA buffer, and incubated on ice for 5 minutes. Lysates were sonicated 3× for 10 sec at 50% power, then incubated on ice for 10 minutes. Lysates were then centrifuged at max speed for 15 minutes at 4 degrees in a table top centrifuge. Clarified lysates were aliquoted to a fresh tube, and protein concentrations for WCL were determined by BCA assay (Pierce).

[11] = molecular target: EHMT1 (Homo sapiens, UniProt Q9H9B1); assay: Histone methyltransferase inhibition, EHMT1; type: biochemical
[12] = molecular target: PRMT3 (Homo sapiens, UniProt O60678); assay: Histone methyltransferase inhibition, PRMT3; type: biochemical; details: read-out: % Inhibition at 1 μM Compound A, mean and SD of duplicate experiments
[13] = molecular target: PRMT5/MEP50 (Homo sapiens, UniProt O14744); assay: Histone methyltransferase inhibition, PRMT5/MEP50; type: biochemical
Sequence of PRMT5/MEP50 (O14744 whole entry, species assumed): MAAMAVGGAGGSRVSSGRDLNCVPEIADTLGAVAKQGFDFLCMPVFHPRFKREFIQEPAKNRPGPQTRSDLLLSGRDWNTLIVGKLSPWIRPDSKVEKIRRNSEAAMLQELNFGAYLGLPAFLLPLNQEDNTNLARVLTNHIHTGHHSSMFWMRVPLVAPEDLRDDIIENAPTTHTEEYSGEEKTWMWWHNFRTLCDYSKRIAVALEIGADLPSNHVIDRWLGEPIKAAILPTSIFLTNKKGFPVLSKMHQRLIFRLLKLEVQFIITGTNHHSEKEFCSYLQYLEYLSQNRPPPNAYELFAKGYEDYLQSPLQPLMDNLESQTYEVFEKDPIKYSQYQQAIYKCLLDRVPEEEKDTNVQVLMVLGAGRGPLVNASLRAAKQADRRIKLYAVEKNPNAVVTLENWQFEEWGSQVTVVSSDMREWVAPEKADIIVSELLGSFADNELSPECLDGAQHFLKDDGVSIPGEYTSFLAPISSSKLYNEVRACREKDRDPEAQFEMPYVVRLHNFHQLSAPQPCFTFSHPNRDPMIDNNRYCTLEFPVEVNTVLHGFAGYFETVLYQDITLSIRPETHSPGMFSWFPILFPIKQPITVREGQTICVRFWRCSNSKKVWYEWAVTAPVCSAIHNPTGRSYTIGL
Sequence of PRMT5/MEP50 (Q9BQA1 whole entry partner, species assumed): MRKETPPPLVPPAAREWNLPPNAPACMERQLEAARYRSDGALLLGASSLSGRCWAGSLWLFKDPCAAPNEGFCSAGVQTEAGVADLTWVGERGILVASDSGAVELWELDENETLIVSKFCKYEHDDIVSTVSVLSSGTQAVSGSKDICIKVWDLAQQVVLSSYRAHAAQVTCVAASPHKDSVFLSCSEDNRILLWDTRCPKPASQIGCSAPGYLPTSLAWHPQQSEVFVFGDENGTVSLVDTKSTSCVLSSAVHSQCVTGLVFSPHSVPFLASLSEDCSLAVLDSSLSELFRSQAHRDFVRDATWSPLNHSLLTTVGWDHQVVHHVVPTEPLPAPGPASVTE

[14] = system: WSU-DLCL2 Human Lymphoma Cells; assay: Washout experiments, WSU-DLCL2 proliferation (LCC); type: cell-based
[15] = system: subcutaneous G401 xenografts
Protocol: ELISA: Histones were isolated from tumors as previously described (Daigle et al) and were prepared in equivalent concentrations (0.5 ng/ul for H3 and 4 ng/ul for H3K27Me3) in coating buffer (PBS with 0.05% BSA). […] The plates were sealed and incubated overnight at 4° C. The following day, plates were washed 3 times with 300 μL/well PBST (PBS with 0.05% Tween 20; 10×PBST, KPL #51-14-02) on a Bio Tek plate washer. Plates were blocked with 300 μL/well of diluent (PBS+2% BSA+0.05% Tween 20), incubated at room temperature for 2 hours, and washed 3 times with PBST. All antibodies were diluted in diluent. […] Plates were incubated for 90 minutes at room temperature and washed 3 times with PBST. […] Plates were washed 4 times with PBST. For detection, 100 μL/well of TMB substrate (BioFx Laboratories, #TMBS) was added and plates incubated in the dark at room temperature for 5 minutes. Reaction was stopped with 100 μL/well 1N H2SO4. Absorbance at 450 nm was read on SpectraMax M5 Microplate reader.
Xenograft study: All the procedures related to animal handling, care and the treatment in this study were performed according to the guidelines approved by the Institutional Animal Care and Use Committee (IACUC) of Shanghai Chemparner following the guidance of the Association for Assessment and Accreditation of Laboratory Animal Care (AAALAC). […] Animal body weights were measured every day during the first week, then twice weekly for the remainder of the study. Tumor size was measured twice weekly in two dimensions using a caliper, and the volume was expressed in mm^3. […] The remaining mice continued dosing for one more week, and from day 29, treatment was stopped and the mice were enrolled in a tumor growth delay study. Mice were observed as individuals until they reached the tumor weight endpoint (2000 mm^3) or until day 60 (whichever came first).

[16] = system: G401 SMARCB1-deleted cells; assay: Cell cycle analysis (flow cytometry) and TUNEL assay, G401; type: cell-based; details: 1 μM, up to 14 days
Protocol: (§4) Cell cycle analysis and TUNEL assay were performed using a Guava® flow cytometer, following the manufacturer's protocol.

[17] = system: H3K27Me3 in G401 cells; details: 4 days, acid-extracted histones, immunoblot
Protocol: as §2, §3

[18] = system: G402 SMARCB1-deleted cells; assay: Cell morphology, G402 cells; type: cell-based; details: 1 μM, 14 days
[19] = molecular target: CARM1 (Homo sapiens, UniProt Q86X55); assay: Histone methyltransferase inhibition, CARM1; type: biochemical
[20] = molecular target: SETD7 (Homo sapiens, UniProt Q8WTS6); assay: Histone methyltransferase inhibition, SETD7; type: biochemical; details: read-out: % Inhibition at 1 μM Compound A, mean and SD of duplicate experiments
[21] = molecular target: PRMT8 (Homo sapiens, UniProt Q9NR22); assay: Histone methyltransferase inhibition, PRMT8; type: biochemical
Sequence of PRMT8 (Q9NR22 whole entry, species assumed): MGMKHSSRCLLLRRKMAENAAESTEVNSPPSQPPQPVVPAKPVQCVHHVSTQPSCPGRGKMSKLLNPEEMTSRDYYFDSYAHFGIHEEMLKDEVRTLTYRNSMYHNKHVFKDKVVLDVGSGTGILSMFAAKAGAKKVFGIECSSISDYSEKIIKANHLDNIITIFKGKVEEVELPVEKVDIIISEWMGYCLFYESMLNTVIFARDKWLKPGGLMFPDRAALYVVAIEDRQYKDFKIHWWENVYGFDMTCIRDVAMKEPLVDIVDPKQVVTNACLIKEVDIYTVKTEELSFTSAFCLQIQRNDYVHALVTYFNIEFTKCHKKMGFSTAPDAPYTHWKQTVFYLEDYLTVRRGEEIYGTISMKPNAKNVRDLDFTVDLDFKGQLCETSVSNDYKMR

[22] = system: Pfeiffer cells; details: Pfeiffer (EZH2 A677G); 11-day proliferation
[23] = molecular target: SMYD3 (Homo sapiens, UniProt Q9H7B4); assay: Histone methyltransferase inhibition, SMYD3; type: biochemical; details: read-out: % Inhibition at 1 μM Compound A, mean and SD of duplicate experiments
[24] = system: WSU-DLCL2 cells; assay: Cell cycle progression and apoptosis (TUNEL), WSU-DLCL2; type: cell-based, human
[25] = molecular target: WHSC1L1 (Homo sapiens, UniProt Q9BZ95); assay: Histone methyltransferase inhibition, WHSC1L1; type: biochemical
[26] = molecular target: PRMT1 (Homo sapiens, UniProt Q99873); assay: Histone methyltransferase inhibition, PRMT1; type: biochemical
Sequence of PRMT1 (Q99873 whole entry, species assumed): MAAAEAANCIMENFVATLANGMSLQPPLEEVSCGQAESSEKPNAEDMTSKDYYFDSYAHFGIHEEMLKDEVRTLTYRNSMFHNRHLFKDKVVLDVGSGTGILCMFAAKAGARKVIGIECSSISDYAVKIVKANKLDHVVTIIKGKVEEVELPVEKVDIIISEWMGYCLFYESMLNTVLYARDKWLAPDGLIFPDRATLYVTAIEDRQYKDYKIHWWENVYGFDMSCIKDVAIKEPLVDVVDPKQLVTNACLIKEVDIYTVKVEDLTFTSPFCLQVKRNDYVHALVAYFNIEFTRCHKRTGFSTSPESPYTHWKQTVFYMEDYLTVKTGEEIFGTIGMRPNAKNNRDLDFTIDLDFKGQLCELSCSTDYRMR

[27] = system: OCI-LY19 cells; details: OCI-LY19 (EZH2 wild type for residue Y641)
[28] = system: RD SMARCB1 wild-type cells; assay: Cell cycle analysis (flow cytometry) and TUNEL assay, RD; type: cell-based; details: 1 μM, up to 14 days
Protocol: as §4

[29] = system: SMARCB1 regulated genes in G401 cells; assay: Gene expression analysis (qPCR), G401 cells; type: cell-based; details: 1 μM, up to 7 days, time-dependent
Protocol: as §1

[30] = molecular target: PRMT6 (Homo sapiens, UniProt Q96LA8); assay: Histone methyltransferase inhibition, PRMT6; type: biochemical; details: read-out: % Inhibition at 1 μM Compound A, mean and SD of duplicate experiments
[31] = system: G401 SNF mutant cell line; assay: Soft agar growth, G401; type: cell-based; details: after 7 days
[32] = system: ATRX mutant SCLC line NCI-H446; assay: Response of ATRX mutant SCLC lines to Compound E, NCI-H446; type: cell-based
[33] = system: SNF5 mutant cell line A204; assay: Response of cell lines to Compound E (FIG. 2), A204; type: cell-based
[34] = system: SNF5 mutant cell line G401; assay: Response of cell lines to Compound E (FIG. 2), G401; type: cell-based
[35] = system: ATRX mutant SCLC line SW1271; assay: Response of ATRX mutant SCLC lines to Compound E, SW1271; type: cell-based
[36] = system: ATRX mutant SCLC line NCI-H841; assay: Response and morphology of ATRX mutant SCLC line NCI-H841 with Compound E; type: cell-based
[37] = system: SNF5 mutant cell line G402; assay: Response of cell lines to Compound E (FIG. 2), G402; type: cell-based
[38] = system: LNCAP prostate cancer cells; assay: Cell growth inhibition in vitro, LNCAP; type: cell-based
[39] = read-out: % Inhibition at 1 μM Compound A, mean and SD of duplicate experiments
[40] = 4-day Compound A, 11-day Washout
[41] = 7-day Compound A, 7-day Washout

Sequence of SMYD2 (Q9NRG4 whole entry, species assumed): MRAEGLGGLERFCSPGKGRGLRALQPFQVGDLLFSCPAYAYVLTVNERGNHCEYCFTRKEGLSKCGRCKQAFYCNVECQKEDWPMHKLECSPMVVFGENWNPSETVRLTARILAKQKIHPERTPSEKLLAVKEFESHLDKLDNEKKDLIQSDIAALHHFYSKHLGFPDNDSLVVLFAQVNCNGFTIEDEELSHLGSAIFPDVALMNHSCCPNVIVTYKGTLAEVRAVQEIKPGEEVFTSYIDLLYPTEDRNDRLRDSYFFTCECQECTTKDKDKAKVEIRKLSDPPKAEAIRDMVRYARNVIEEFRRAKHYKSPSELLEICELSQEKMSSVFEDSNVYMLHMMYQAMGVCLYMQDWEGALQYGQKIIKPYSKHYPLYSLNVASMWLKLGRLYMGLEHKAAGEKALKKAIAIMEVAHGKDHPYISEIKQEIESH

CCN(c1cc(-c2ccc(CN3CCOCC3)cc2)cc(C(=O)NCc2c(C)cc(C)[nH]c2=O)c1C)C1CCOCC1 [Compound A, N-((4,6-dimethyl-2-oxo-1,2-dihydropyridin-3-yl)methyl)-5-(ethyl (tetrahydro-2H-pyran-4-yl)amino)-4-methyl-4′-(morpholinomethyl)-[1,1′-biphenyl]-3-carboxamide]
IC50 ([1]; one experiment): > 50 µM
inhibition at 1 µM [1, 39]: 1 ± 2%
IC50 ([2]; one experiment): > 100 µM
inhibition at 1 µM [2, 39]: 8 ± 3%
sensitivity in vitro (cell viability, CellTiter-Glo) [3]: sensitive
expression of the SMARCB1 regulated genes [4]: minimal effect on expression
IC50 ([5]; one experiment): > 50 µM
inhibition at 1 µM [5, 39]: 7 ± 3%
IC50 ([6]; one experiment): > 50 µM
inhibition at 1 µM [6, 39]: 2 ± 8%
LCC for WSU-DLCL2 cells as plasma level [7]: 1652 ng/mL
oral bioavailability [8]: excellent
antitumor effect, intermittent dosing schedules ([9]; 90 mg/kg BID): tumor growth inhibition
antitumor effect, intermittent dosing schedules ([9]; 361 mg/kg BID): complete regressions
tumor H3K27Me3 levels ([9]; 7-day study, nude mice, BID and QD schedules): dose-dependent reduction of tumor H3K27Me3 levels
tumor re-growth after cessation of dosing ([9]; higher doses, up to 90 days after cessation of dosing): no re-growth
specificity for inhibition of cellular histone methylation [10]: selective inhibition of cellular H3K27 methylation
IC50 ([11]; one experiment): > 50 µM
inhibition at 1 µM [11, 39]: 6 ± 6%
inhibition at 1 µM [12]: 2 ± 2%
IC50 ([13]; one experiment): > 50 µM
inhibition at 1 µM [13, 39]: 2 ± 6%
Day 11 LCC [14, 40]: 0.36 µM
Day 14 LCC [14, 40]: 0.42 µM
Day 11 LCC [14, 41]: 0.19 µM
Day 14 LCC [14, 41]: 0.075 µM
Day 11 LCC ([14]; No Washout): 0.17 µM
Day 14 LCC ([14]; No Washout): 0.11 µM
tumor growth after the dosing period compared to vehicle ([15]; 125 mg/kg): significant tumor growth delay
tumor growth after dosing stop compared to vehicle ([15]; 133 mg/kg): significant tumor growth delay
tumor re-growth ([15]; 250 or 500 mg/kg BID, 32 days after dose cessation): Re-growth was not observed
antitumor effect ([15]; 250 or 500 mg/kg twice daily (BID) for 21 to 28 days): practically eliminated
antitumor effect ([15]; 266 or 532 mg/kg BID for 28 days): eliminated
tumor re-growth ([15]; 266 or 532 mg/kg BID, study end, 32 days after dosing stop): re-growth was not observed
plasma levels (systemic exposure) ([15]; 5 min before or 3 h after dosing on day 21, LC-MS/MS): dose-dependent increase in systemic exposure
gene expression in G401 xenograft tumors ([15]; treated 21 days, qPCR): dose-dependent changes in the expression of CD133, PTPRK, DOCK4 and GLI1
H3K27me3 in tumors (ELISA) ([15]; tumors harvested on day 21, maximum effect at 250 mg/kg): strong inhibition of H3K27me3
cell cycle (G1 arrest) [16]: increase in the percentage of cells in G1 phase, and a concomitant decrease in S phase and G2/M phase after 7 days; also recorded: G1 arrest was observed as of day 7
sub-G1 fraction and apoptotic cells (TUNEL assay) [16]: increased in a time dependent manner; also recorded: apoptosis was induced as of day 11
specificity for inhibition of cellular histone methylation [17]: selective inhibition of cellular H3K27 methylation
cell morphology [18]: neuron-like morphology
IC50 ([19]; mean of duplicate experiments): > 50 µM
inhibition at 1 µM ([19]; read-out: % Inhibition at 1 μM Compound A, mean and standard deviation of duplicate experiments): 5 ± 3%
inhibition at 1 µM [20]: 4 ± 3%
IC50 ([21]; one experiment): > 50 µM
inhibition at 1 µM [21, 39]: 7 ± 3%
increase in sensitivity over the Y641 mutant cell lines, measured by IC50 value [22]: 20 fold
increase in sensitivity over the Y641 mutant cell lines, measured by LCC [22]: 300 fold
inhibition at 1 µM [23]: 0%
sub-G1 fraction ([24]; 1 μM, 7 days): no apparent increase in the sub-G1 fraction
cell cycle progression ([24]; 1 μM, apparent after 2 days, maximum after 4 days): increase in the percentage of cells in G1 phase, and a decrease in the percentage of cells in S phase and G2/M phase
fraction of apoptotic cells (TUNEL assay) ([24]; day 14 compared to vehicle): significantly increased
IC50 ([25]; one experiment): > 100 µM
inhibition at 1 µM [25, 39]: 9 ± 8%
IC50 ([26]; one experiment): > 50 µM
inhibition at 1 µM [26, 39]: 5 ± 4%
growth over 11 days [27]: not significantly affected
cell cycle and apoptosis compared to DMSO control [28]: no changes in cell cycle or apoptosis
expression of CDKN1A, CDKN2A and BIN1 [29]: up-regulated cell cycle inhibitors CDKN1A and CDKN2A and tumor suppressor BIN1
expression of neuronal differentiation genes CD133, DOCK4, PTPRK [29]: strongly induced expression of CD133, DOCK4 and PTPRK
inhibition at 1 µM [30]: 3 ± 3%

CCN(c1cc(-c2ccc(CN3CCOCC3)cc2)cc(C(=O)NCc2c(C)cc(C)[nH]c2=O)c1C)[C@H]1CC[C@H](N(C)C)CC1 [Compound E, N-((4,6-dimethyl-2-oxo-1,2-dihydropyridin-3-yl)methyl)-5-(((1r,4r)-4-(dimethylamino)cyclohexyl)(ethyl)amino)-4-methyl-4′-(morpholinomethyl)-[1,1′-biphenyl]-3-carboxamide]
response in soft agar compared to wild type cells RD [31]: responding
response [32]: responding
response compared to wild type cell lines RD and SJCRH30 [33]: selectively respond
response compared to wild type cell lines RD and SJCRH30 [34]: selectively respond
response [35]: responding
response [36]: responding
cell morphology ([36]; 4.1E-02 uM or 3.3 uM): changes morphology
response compared to wild type cell lines RD and SJCRH30 [37]: selectively respond
cell growth inhibition [38]: dose-dependent cell growth inhibition
